Experimental data reported in US20230183193A1, “4-DIFLUOROMETHYL BENZOYL AMIDES WITH HERBICIDAL ACTION” (BAYER CROPSCIENCE AKTIENGESELLSCHAFT, priority 2017, published 2023).

Key:
Format in all cases: in vivo
Setaria viridis [1] = test: Post-emergence herbicidal action, SETVI; conditions: 80 g/ha, Table C
Summary of the method: (§1)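 Post-emergence spray; one-leaf stage (2–3 wk after sowing), sandy loam, greenhouse. WP/EC in water, 600 to […], +0.2% wetting agent. Visual % damage vs untreated at ~3 wk; 100% = plants dead.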

Alopecurus myosuroides [2] = test: Post-emergence herbicidal action, ALOMY; conditions: 80 g/ha, Table C
Summary of the method: as §1

Amaranthus retroflexus [3] = test: Post-emergence herbicidal action, AMARE; conditions: 80 g/ha, Table D
Summary of the method: as §1

Cyperus serotinus = test: Pre-emergence herbicidal action, CYPES; conditions: dosage 320 g/ha, scored visually after 3 weeks vs untreated controls
Summary of the method: (§2)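 Percent herbicidal activity rated by eye 3 weeks after pre-emergence soil-surface application, compared with untreated pots. Seeds sat under sandy loam; sprays carried 0.2% wetting agent.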

Setaria viridis [4] = test: Pre-emergence herbicidal action, SETVI; conditions: dosage 320 g/ha, scored visually after 3 weeks vs untreated controls
Summary of the method: as §2

Abutilon theophrasti [5] = test: Post-emergence herbicidal action, ABUTH; conditions: 80 g/ha, Table D
Summary of the method: as §1

ECHCG = test: Post-emergence herbicidal action, ECHCG; conditions: 80 g/ha, Table C
Summary of the method: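 Weed and crop plants grown in sandy loam in the greenhouse, treated at the one-leaf stage 2–3 weeks after sowing. Damage scored visually after about 3 weeks vs untreated controls (0% = control, 100% = dead).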

Stellaria media [6] = test: Pre-emergence herbicidal action, STEME; conditions: dosage 320 g/ha, scored visually after 3 weeks vs untreated controls
Summary of the method: as §2

Pharbitis purpureum = test: Post-emergence herbicidal action, PHBPU; conditions: 80 g/ha, Table D
Summary of the method: as §1

Viola tricolor [7] = test: Post-emergence herbicidal action, VIOTR; conditions: 80 g/ha, Table D
Summary of the method: as §1

Avena fatua [8] = test: Pre-emergence herbicidal action, AVEFA; conditions: dosage 320 g/ha, scored visually after 3 weeks vs untreated controls
Summary of the method: as §2

Alopecurus myosuroides [9] = test: Pre-emergence herbicidal action, ALOMY; conditions: dosage 320 g/ha, scored visually after 3 weeks vs untreated controls
Summary of the method: as §2

Stellaria media [10] = test: Post-emergence herbicidal action, STEME; conditions: 80 g/ha, Table D
Summary of the method: as §1

Avena fatua [11] = test: Post-emergence herbicidal action, AVEFA; conditions: 80 g/ha, Table C
Summary of the method: as §1

Matricaria inodora = test: Pre-emergence herbicidal action, MATIN; conditions: dosage 320 g/ha, scored visually after 3 weeks vs untreated controls
Summary of the method: as §2

Amaranthus retroflexus [12] = test: Pre-emergence herbicidal action, AMARE; conditions: dosage 320 g/ha, scored visually after 3 weeks vs untreated controls
Summary of the method: as §2

Viola tricolor [13] = test: Pre-emergence herbicidal action, VIOTR; conditions: dosage 320 g/ha, scored visually after 3 weeks vs untreated controls
Summary of the method: as §2

Abutilon theophrasti [14] = test: Pre-emergence herbicidal action, ABUTH; conditions: dosage 320 g/ha, scored visually after 3 weeks vs untreated controls
Summary of the method: as §2

CCc1c(C(=O)Nc2nnc(C)o2)ccc(C(F)F)c1[S+]([O-])CC (stereo not drawn) [Example 7-15]
90%: herbicidal activity ALOMY (Alopecurus myosuroides [2]) | Herbicidal activity ECHCG (ECHCG) | Herbicidal activity PHBPU (Pharbitis purpureum)
100%: herbicidal activity SETVI (Setaria viridis [1]) | herbicidal activity AMARE (Amaranthus retroflexus [3]) | herbicidal activity CYPES (Cyperus serotinus) | herbicidal activity SETVI (Setaria viridis [4]) | herbicidal activity ABUTH (Abutilon theophrasti [5]) | Herbicidal activity STEME (Stellaria media [6]) | herbicidal activity VIOTR (Viola tricolor [7]) | herbicidal activity AVEFA (Avena fatua [8]) | herbicidal activity ALOMY (Alopecurus myosuroides [9]) | Herbicidal activity STEME (Stellaria media [10]) | herbicidal activity AVEFA (Avena fatua [11]) | herbicidal activity MATIN (Matricaria inodora) | herbicidal activity AMARE (Amaranthus retroflexus [12]) | herbicidal activity VIOTR (Viola tricolor [13]) | herbicidal activity ABUTH (Abutilon theophrasti [14])

CCc1c(C(=O)Nc2nnnn2C)ccc(C(F)F)c1SC [Example 1-13]
90%: herbicidal activity SETVI (Setaria viridis [1]) | herbicidal activity ALOMY (Alopecurus myosuroides [2]) | Herbicidal activity ECHCG (ECHCG)
100%: herbicidal activity AMARE (Amaranthus retroflexus [3]) | herbicidal activity CYPES (Cyperus serotinus) | herbicidal activity SETVI (Setaria viridis [4]) | herbicidal activity ABUTH (Abutilon theophrasti [5]) | Herbicidal activity STEME (Stellaria media [6]) | Herbicidal activity PHBPU (Pharbitis purpureum) | herbicidal activity VIOTR (Viola tricolor [7]) | herbicidal activity AVEFA (Avena fatua [8]) | herbicidal activity ALOMY (Alopecurus myosuroides [9]) | Herbicidal activity STEME (Stellaria media [10]) | herbicidal activity AVEFA (Avena fatua [11]) | herbicidal activity MATIN (Matricaria inodora) | herbicidal activity AMARE (Amaranthus retroflexus [12]) | herbicidal activity VIOTR (Viola tricolor [13]) | herbicidal activity ABUTH (Abutilon theophrasti [14])

CCn1nnnc1NC(=O)c1ccc(C(F)F)c([S+](C)[O-])c1C1CC1 (stereo not drawn) [Example 2-26]
90%: herbicidal activity ALOMY (Alopecurus myosuroides [2]) | herbicidal activity CYPES (Cyperus serotinus) | herbicidal activity ABUTH (Abutilon theophrasti [5]) | Herbicidal activity PHBPU (Pharbitis purpureum)
100%: herbicidal activity SETVI (Setaria viridis [1]) | herbicidal activity AMARE (Amaranthus retroflexus [3]) | herbicidal activity SETVI (Setaria viridis [4]) | Herbicidal activity ECHCG (ECHCG) | Herbicidal activity STEME (Stellaria media [6]) | herbicidal activity VIOTR (Viola tricolor [7]) | herbicidal activity AVEFA (Avena fatua [8]) | herbicidal activity ALOMY (Alopecurus myosuroides [9]) | Herbicidal activity STEME (Stellaria media [10]) | herbicidal activity AVEFA (Avena fatua [11]) | herbicidal activity MATIN (Matricaria inodora) | herbicidal activity AMARE (Amaranthus retroflexus [12]) | herbicidal activity VIOTR (Viola tricolor [13]) | herbicidal activity ABUTH (Abutilon theophrasti [14])

CCS(=O)(=O)c1c(C(F)F)ccc(C(=O)Nc2nonc2Cl)c1C [Example 6-6]
100%: herbicidal activity SETVI (Setaria viridis [4]) | Herbicidal activity PHBPU (Pharbitis purpureum) | herbicidal activity VIOTR (Viola tricolor [7]) | Herbicidal activity STEME (Stellaria media [10]) | herbicidal activity MATIN (Matricaria inodora) | herbicidal activity VIOTR (Viola tricolor [13]) | herbicidal activity ABUTH (Abutilon theophrasti [14])
80%: herbicidal activity ALOMY (Alopecurus myosuroides [2]) | herbicidal activity AMARE (Amaranthus retroflexus [3]) | herbicidal activity CYPES (Cyperus serotinus) | herbicidal activity ABUTH (Abutilon theophrasti [5]) | herbicidal activity AVEFA (Avena fatua [11])
90%: herbicidal activity SETVI (Setaria viridis [1]) | Herbicidal activity ECHCG (ECHCG) | Herbicidal activity STEME (Stellaria media [6]) | herbicidal activity AVEFA (Avena fatua [8]) | herbicidal activity ALOMY (Alopecurus myosuroides [9]) | herbicidal activity AMARE (Amaranthus retroflexus [12])
